Assay results reported in US12415786B2, “Substituted 2-heteroarylaminobenzenes and the salts thereof and their use as herbicidal agents” (Bayer Aktiengesellschaft, priority 2019, dated 2025).

Legend:
Assay type in all cases: in vivo
Agrostis tenuis = test: Herbicidal early post-emergence action (96-well microtiter plates), AGSTE; conditions: 1900 g/ha, scored 9 to 12 days after treatment, 100% = plants have died, 0% = like untreated control plants
In short: (§1)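 Activity was scored by eye 9 to 12 days after treatment (100% = plants dead, 0% = like untreated controls). Spraying used emulsion concentrates at 1900 g/ha in 2200 L/ha water, applied to cotyledon-stage seedlings raised 5 to 7 days in quartz sand in 96-well plates under controlled conditions.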

Stellaria media [1] = test: Herbicidal post-emergence action (greenhouse pots), STEME; conditions: 1280 g/ha, visual rating about 3 weeks after treatment vs untreated controls
In short: (§2)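 Post-emergence greenhouse test, sandy loam pots; one-leaf stage (2–3 wk after sowing); WP/EC as aqueous spray + 0.5% additive, 600 L/ha water, 1280 g/ha. Visual % activity ~3 wk post-treatment vs untreated (100% = plants dead).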

Matricaria inodora [2] = test: Herbicidal post-emergence action (greenhouse pots), MATIN; conditions: 1280 g/ha, visual rating about 3 weeks after treatment vs untreated controls
Source text: (§3) In the examples and tables below, the following abbreviations are used: • Undesired Plants/Weeds: • ABUTH: Abutilon theophrasti • AGSTE: Agrostis tenuis • AMARE Amaranthus retroflexus • ECHCG: Echinochloa crus-galli • LOLRI: Lolium rigidum • MATIN: Matricaria inodora • POAAN: Poa annua • SETVI: Setaria viridis • STEME: Stellaria media A. Herbicidal Early Post-Emergence Action Seeds of mono- and dicotyledonous weed plants were placed in plastic pots in sandy loam soil (doubly sown with in each case one species of mono- or dicotyledonous weed plants per pot), covered with soil and cultivated in a greenhouse under controlled growth conditions. 2 to 3 weeks after sowing, the test plants were treated at the one-leaf stage. The compounds of the invention, formulated in the form of wettable powders (WP) or as emulsion concentrates (EC), were applied onto the green parts of the plants as aqueous suspension or emulsion with addition of 0.5% additive at a water application rate of 600 liters per hectare (converted). After the test plants had been kept in the greenhouse under optimum growth conditions for about 3 weeks, the activity of the preparations was rated visually in comparison to untreated controls. For example, 100% activity=the plants have died, 0% activity=like untreated control plants. Tables B1-B8 below show the effects of selected compounds of the general formula (I) according to Table 1 above on various harmful plants and an application rate corresponding to 1280 g/ha, which were obtained by the experimental procedure mentioned above.

Poa annua [3] = test: Herbicidal post-emergence action (greenhouse pots), POAAN; conditions: 1280 g/ha, visual rating about 3 weeks after treatment vs untreated controls
Source text: as §3

Amaranthus retroflexus [4] = test: Herbicidal pre-emergence action (greenhouse pots), AMARE; conditions: 1280 g/ha, visual scoring after about 3 weeks vs untreated controls
In short: (§4)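 Visual % activity (0 = like untreated, 100 = plants dead) scored about 3 weeks after treatment. Sandy loam pots were doubly sown with one monocot and one dicot species each. WP/EC formulations at 1280 g/ha were sprayed onto the soil surface in 600 L/ha water containing 0.5% additive.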

Echinochloa crus-galli [5] = test: Herbicidal pre-emergence action (greenhouse pots), ECHCG; conditions: 1280 g/ha, visual scoring after about 3 weeks vs untreated controls
In short: as §4

Echinochloa crus-galli [6] = test: Herbicidal post-emergence action (greenhouse pots), ECHCG; conditions: 1280 g/ha, rated after about 3 weeks, 100% = plants have died, 0% = like untreated control plants
Source text: as §3

Stellaria media [7] = test: Herbicidal pre-emergence action (greenhouse pots), STEME; conditions: 1280 g/ha, visual scoring after about 3 weeks vs untreated controls
In short: as §4

Matricaria inodora [8] = test: Herbicidal pre-emergence action (greenhouse pots), MATIN; conditions: 1280 g/ha, visual scoring after about 3 weeks vs untreated controls
In short: as §4

Abutilon theophrasti [9] = test: Herbicidal pre-emergence action (greenhouse pots), ABUTH; conditions: 1280 g/ha, visual scoring after about 3 weeks vs untreated controls
Source text: (§5) In the examples and tables below, the following abbreviations are used: • Undesired Plants/Weeds: • ABUTH: Abutilon theophrasti • AGSTE: Agrostis tenuis • AMARE Amaranthus retroflexus • ECHCG: Echinochloa crus-galli • LOLRI: Lolium rigidum • MATIN: Matricaria inodora • POAAN: Poa annua • SETVI: Setaria viridis • STEME: Stellaria media A. Herbicidal Early Post-Emergence Action Seeds of mono- and dicotyledonous weed plants were placed in plastic pots in sandy loam soil (doubly sown with one species each of mono- or dicotyledonous weed plants per pot) and covered with soil. The compounds of the invention, formulated in the form of wettable powders (WP) or as emulsion concentrates (EC), were then applied onto the surface of the covering soil as aqueous suspension or emulsion with addition of 0.5% additive at a water application rate of 600 liters per hectare (converted). After the treatment, the pots were placed in a greenhouse and kept under good growth conditions for the test plants. After about 3 weeks, the effect of the preparations was scored visually in comparison with untreated controls as percentages. For example, 100% activity=the plants have died, 0% activity=like untreated control plants. Tables C1-C8 below show the effects of selected compounds of the general formula (I) according to Table 1 above on various harmful plants and an application rate corresponding to 1280 g/ha, which were obtained by the experimental procedure mentioned above.

Setaria viridis [10] = test: Herbicidal pre-emergence action (greenhouse pots), SETVI; conditions: 1280 g/ha, visual scoring after about 3 weeks vs untreated controls
In short: as §4

Lolium rigidum = test: Herbicidal pre-emergence action (greenhouse pots), LOLRI; conditions: 1280 g/ha, visual scoring after about 3 weeks vs untreated controls
Source text: as §5

Poa annua [11] = test: Herbicidal early post-emergence action (96-well microtiter plates), POAAN; conditions: 1900 g/ha, scored 9 to 12 days after treatment, 100% = plants have died, 0% = like untreated control plants
In short: as §1

Abutilon theophrasti [12] = test: Herbicidal post-emergence action (greenhouse pots), ABUTH; conditions: 1280 g/ha, visual rating about 3 weeks after treatment vs untreated controls
In short: as §2

Setaria viridis [13] = test: Herbicidal post-emergence action (greenhouse pots), SETVI; conditions: 1280 g/ha, rated after about 3 weeks, 100% = plants have died, 0% = like untreated control plants
Source text: as §3

Amaranthus retroflexus [14] = test: Herbicidal post-emergence action (greenhouse pots), AMARE; conditions: 1280 g/ha, visual rating about 3 weeks after treatment vs untreated controls
In short: as §2

Poa annua [15] = test: Herbicidal pre-emergence action (greenhouse pots), POAAN; conditions: 1280 g/ha, visual scoring after about 3 weeks vs untreated controls
In short: as §4

Structure (SMILES) | AGSTE (herbicidal activity, scored visually in comparison to untreated controls) (Agrostis tenuis) [%] | herbicidal activity STEME (Stellaria media [1]) [%] | herbicidal activity MATIN (Matricaria inodora [2]) [%] | herbicidal activity POAAN (Poa annua [3]) [%] | herbicidal activity AMARE (Amaranthus retroflexus [4]) [%] | herbicidal activity ECHCG (Echinochloa crus-galli [5]) [%] | ECHCG (herbicidal activity, rated visually in comparison to untreated controls) (Echinochloa crus-galli [6]) [%] | herbicidal activity STEME (Stellaria media [7]) [%] | herbicidal activity MATIN (Matricaria inodora [8]) [%] | herbicidal activity ABUTH (Abutilon theophrasti [9]) [%] | herbicidal activity SETVI (Setaria viridis [10]) [%] | herbicidal activity LOLRI (Lolium rigidum) [%] | POAAN (herbicidal activity, scored visually in comparison to untreated controls) (Poa annua [11]) [%] | herbicidal activity ABUTH (Abutilon theophrasti [12]) [%] | SETVI (herbicidal activity, rated visually in comparison to untreated controls) (Setaria viridis [13]) [%] | herbicidal activity AMARE (Amaranthus retroflexus [14]) [%] | herbicidal activity POAAN (Poa annua [15]) [%]
CCc1cnc(Nc2cccc(C#N)c2Oc2ccc(F)cc2)nc1 [Example 1-310] | 80 | 90 | 100 |  |  |  |  |  |  |  |  |  |  |  |  |  | 
N#Cc1cccc(Nc2ncc(F)cn2)c1Oc1ccc(Cl)cc1 [Example 1-269] | 80 | 100 |  | 90 | 100 | 90 | 90 | 100 | 100 | 90 | 100 | 90 | 100 | 90 | 90 | 100 | 100
N#Cc1cccc(Nc2ncccn2)c1Oc1ccc(F)cc1 [Example 1-248] | 100 | 100 |  | 100 | 100 | 100 | 100 | 100 | 100 | 100 | 100 | 100 | 100 | 100 |  | 100 | 100
N#Cc1cccc(Nc2ncc(F)cn2)c1Oc1cc(F)c(F)cc1F [Example 1-375] | 100 | 100 |  | 100 | 100 | 100 |  | 100 | 100 | 100 | 100 | 90 | 100 | 90 |  | 100 | 100
N#Cc1cccc(Nc2ncc(Cl)cc2F)c1Oc1ccc(F)cc1 [Example 1-139] | 100 |  | 100 | 100 |  |  |  |  |  |  |  |  | 80 |  |  |  | 
N#Cc1cccc(Nc2ncc(F)cn2)c1Oc1ccc(Cl)nc1 [Example 3-54] | 100 | 90 |  | 100 | 100 | 100 |  | 100 | 100 | 100 | 100 | 100 | 100 | 100 | 90 | 100 | 100
N#Cc1cccc(Nc2ncc([N+](=O)[O-])cn2)c1Oc1ccc(F)cc1 [Example 1-306] | 100 | 100 | 100 |  | 100 |  |  | 100 | 90 |  | 100 |  | 80 |  |  |  | 
Clc1cnc(Nc2ccccc2Oc2ccccc2)nc1 [Example 1-336] | 100 | 100 | 100 |  |  |  |  | 100 |  |  |  |  | 100 |  |  |  | 
